Measurements as given in patent US7838122B2, “Hydrazide compounds with angiogenic activity” (Rutgers, the State University of New Jersey, priority 2003, dated 2010).
One block for each compound: values may come before it.

Tests used:
[1] = Scaffold degradation study in SBF at 37° C. (HPLC, TGA, gravimetry)
Method: To determine degradation products of porous scaffolds (compositions used: 100/80, 50/40 and 25/20), hydrogel disks of various compositions samples were incubated at 37° C. in SBF at a constant weight to volume ratio of 5 mg/mL, maintaining a constant surface area to volume ratio. Over a one-week period, aliquots were removed and analyzed by HPLC. Buffer solutions were changed every two weeks to maintain sink conditions. Samples were analyzed over a 6-month period for degradation products in the buffer by HPLC, for water uptake by TGA, and mass loss by gravimetry. Aliquots of the degradation media were analyzed by HPLC. The HPLC system consisted of a reversed-phase (C18) column (Perkin-Elmer, Norwalk, Calif.), an LC pump (Model 410; Perkin-Elmer), a UV array detector at 220 nm (Model 235 Perkin-Elmer), an autoinjector (Model ISS-100; Perkin-Elmer), and a computerized data station (Turbochrom; Perking Elmer). A gradient system of water:acetonitrile was used as an eluent to capture each degradation product. Degradation was monitored using DT and DTE standards, and quantitation of degradation products was determined from the area under the signal peaks in the chromatogram after correlating to the standards. […] Mass loss was calculated as the % ratio of weight lost over initial weight. […]

[2] = system: Human aortic endothelial cells (HAEC); assay: In vitro endothelial cell migration assay (transwell microchemotaxis chamber); assay type: cell-based
Method: Endothelial cells were known to respond to angiogenic factors which cause motility and mitosis, and ultimately the release of growth factors from the cells. Human aortic endothelial cells (HAEC) were cultured at passage 8 and maintained and fed with MCDB 131 media with EGM-2 (Clonetics) until the day of the experiment. Cultures were maintained at 37° C., 5% CO2 and 100% humidity. Comparisons were made of PEG-di-DT Hydrazide activity versus basic FGF-β. The PEG-di-DT hydrazide and basic FGF-β were dissolved in MCDB 131 media. Basic FGF-β was used as a positive control due to its well documented angiogenic activity and extensive testing. Dose-response curves were obtained for PEG-di-DT Hydrazide and basic FGF-β. PEG-dihydrazide, DT monomer, and PEG (Mw=2000), were prepared in MCDB 131 media according to Table 2, and were also tested. Migration assays were performed in a 24-well microchemotaxis chamber (Co-Star) containing transwells of untreated polycarbonate membranes with 8 μm pores. Both the transwells and well bottoms were coated overnight with a 10 μg/mL fibronectin solution (Calbiochem). HAE cells were harvested and resuspended at a concentration of 4.5×10^5 cells/0.1 mL in the corresponding medium. Media was also tested to determine baseline chemotaxis. The bottom wells were filled with 500 μL of test solution, and the transwells were seeded with […] and incubated for 6 hours at 37° C. The cells that migrated through the membrane were quantitated by counting the whole area of the filter using a grid and a (Olympus) microscope at 40× or 20× magnification.

[3] = system: Rat lung fibroblasts (RLF-6); assay: Cytotoxicity, CellTiter96 Aqueous One Solution Cell Proliferation Assay; conditions: RFL-6 cells; serial dilutions 200 to 7.8 mg/mL in SBF; read at 490 nm
Method: In vitro biocompatibility studies of PEG-di-DT hydrazide were assessed by analyzing cytotoxicity. […] The CellTiter96® Aqueous One Solution Cell Proliferation Assay (Promega, Madison, Wis.) was used to determine cytotoxicity. Plates were read on a PowerWavex absorbance plate reader, (Bio-Tek Instrumentation, Inc., Highland Park, Vt.).
Cell toxicity studies were carried out in 96-well plates made of tissue-cultured polystyrene, and ˜3×10^3 cells were seeded in each well. Serial dilutions of PEG-di-DT hydrazide were prepared in concentrations ranging from 200 mg/mL to 7.8 mg/mL using SBF as the diluent. Volume of media was kept constant to prevent nutritional advantages. Filter-sterilized dilutions (n=6) were plated in a 96 well plate and controls of media+cells+diluent (to account for affects of the diluent), and media+cells (optimal cell culture conditions) were employed. […] The plates were incubated for 2 hours and read at 490 nm on an absorbance plate reader. Data were analyzed using a two-tailed Student t-test, establishing statistical significance at p<0.05 when compared to cells grown in the cell+media+diluent control.

Compound: O=C(CCc1ccc(O)cc1)N[C@@H](Cc1ccc(O)cc1)C(=O)O [DT, desaminotyrosyl-tyrosine free carboxylic acid]
presence of degradation product during degradation ([1]; HPLC, 6-month study): continued to remain during the course of degradation
cell migration ([2]; HAEC, 6 hours at 37° C.): Neither PEG 2000 nor DT solutions caused cell migration to occur

time by which degradation product was undetectable by HPLC ([1]; degradation media of hydrogels, SBF, 37° C.): ≤ 12 weeks
Compound: CCOC(=O)[C@H](Cc1ccc(O)cc1)NC(=O)CCc1ccc(O)cc1 [DTE, desaminotyrosyl-tyrosine ethyl ester]

Compound: CC(O)C(=O)[O-].[Na+] (stereo not shown) [Sodium Lactate, sodium lactate]
Results of the Cytotoxicity Assay [3]: 3 mg/mL

Compound: FGF-β: growth factor, known angiogenic substance used as positive control
dose dependence of cell migration ([2]; FIG. 7 / FIG. 8): dose dependent manner
minimum effective concentration (cell migration) ([2]; HAEC, 6 hours, FIG. 6): 0.01 µg/mL
cell migration response versus media alone ([2]; all concentrations tested): higher cell migration response than the media alone
